According to US7087768B2, “Fumagillol derivatives and preparing method thereof” (Equispharm Co., Ltd., priority 2001, dated 2006):
≈ marks a conversion by molar mass, not a printed value.

System: HUVECs (human umbilical vein endothelial cells)
Test: Inhibitory effect of fumagillol derivative on HUVEC cell growth (colorimetry)
Type: cell-based
Conditions: Homo sapiens, HUVEC
Description: Using the HUVECs (human umbilical vein endothelial), the effect of the fumagillol derivative of the present invention on cell growth was evaluated.
The HUVECs were added to M199 medium supplemented with 20% FBS (fetal bovine serum), 100 U/ml penicillin, 100 μg/ml streptomycin, 1.5 g/L sodium bicarbonate, 0.1 mg/ml endothelial cell growth supplement (Sigma) and 0.1 mg/ml heparin (Sigma), after which the cells were incubated in an incubator at 37° C. under 5% CO2. Cells were subcultured a maximum of 8 times before being discarded.
In order to evaluate inhibitory activity of the fumagillin derivative on growth of HUVECs, the inventive compound was dissolved in DMSO and its concentration was adjusted from 10 mM to 1 mM. Cells were aliquotted to 96 well plates at a density of 2×10^3 cells per well and incubated for about 12–24 hours to be properly attached to the plate. Thereafter, the medium was replaced with new medium. The cells were treated with the compound obtained from each of the above examples at various concentration ranges of from 10 μM to […], and cultured for 2–3 days, followed by removing 100 μl of the medium from each well.
Colorimetry was performed to determine the extent of cell growth. The cells on each plate was added with 20 μl of aqueous one solution and then incubated at 37° C. under 5% CO2 for 2 hours. Using a 96-well plate reader, absorption was measured at 490 nm.
As such, a conventional TNP-470 having angiogenesis inhibitory effect was used as a control.

With `CO[C@@H]1[C@H](OC(=O)CNCCBr)CC[C@]2(CO2)[C@H]1[C@@]1(C)OC1CC=C(C)C` (stereo partly drawn) [Ex. 61, 6-O-(2-bromoethylamino)acetyl fumagillol] the IC50 was 2800 ng/mL (≈ 6.27 µM).

Same assay, conditions: Homo sapiens, HUVEC, HUVEC growth, cultured 2–3 days with compound, absorption at 490 nm; read-out: IC50

First: CCCC(C)NCC(=O)O[C@@H]1CC[C@]2(CO2)[C@@H]([C@@]2(C)OC2CC=C(C)C)[C@@H]1OC (stereo partly drawn) [Ex. 49, 6-O-(1-methyl-butylamino)acetyl fumagillol]
Second: CO[C@@H]1[C@H](OC(=O)CNC(C)C)CC[C@]2(CO2)[C@H]1[C@@]1(C)OC1CC=C(C)C (stereo partly drawn) [Ex. 42, 6-O-(isopropylamino)acetyl fumagillol]
The IC50 of the first is 3.7-fold higher: 44 ng/mL (≈ 0.107 µM) for the first, 12 ng/mL (≈ 0.0315 µM) for the second.

`CO[C@@H]1[C@H](OC(=O)CNc2ccc(Cl)cc2)CC[C@]2(CO2)[C@H]1[C@@]1(C)O[C@@H]1CC=C(C)C` [Ex. 19, 6-O-(4-chloroaniline)acetyl fumagillol] and `CO[C@@H]1[C@H](OC(=O)CNc2ccc(C(F)(F)F)cc2)CC[C@]2(CO2)[C@H]1[C@@]1(C)OC1CC=C(C)C` (stereo partly drawn) [Ex. 32, 6-O-(4-trifluoromethylaniline)acetyl fumagillol] are within 1.5-fold of each other in IC50: 174 ng/mL (≈ 0.387 µM) for the first, 128 ng/mL (≈ 0.265 µM) for the second.

First: CCC(CC)NCC(=O)O[C@@H]1CC[C@]2(CO2)[C@@H]([C@@]2(C)OC2CC=C(C)C)[C@@H]1OC (stereo partly drawn) [Ex. 50, 6-O-(1-ethyl-propylamino)acetyl fumagillol]
Second: CCCCNCC(=O)O[C@@H]1CC[C@]2(CO2)[C@@H]([C@@]2(C)OC2CC=C(C)C)[C@@H]1OC (stereo partly drawn) [Ex. 44, 6-O-(1-butylamino)acetyl fumagillol]
The IC50 of the first is 130-fold lower: 24 ng/mL (≈ 0.0586 µM) for the first, 3200 ng/mL (≈ 8.09 µM) for the second.

Compared with `CO[C@@H]1[C@H](OC(=O)CNc2ccc3c(c2)OCO3)CC[C@]2(CO2)[C@H]1[C@@]1(C)OC1CC=C(C)C` (stereo partly drawn) [Ex. 23, 6-O-(3,4-methylenedioxyaniline)acetyl fumagillol], `COc1ccc(NCC(=O)O[C@@H]2CC[C@]3(CO3)[C@@H]([C@@]3(C)OC3CC=C(C)C)[C@@H]2OC)cc1CN(C)C` (stereo partly drawn) [Ex. 10, 6-O-(3-(dimethylaminomethyl)-4-methoxyaniline)acetyl fumagillol] is 4-fold lower in IC50: 0.24 ng/mL (≈ 0.000522 µM) for the first, 0.06 ng/mL (≈ 0.000119 µM) for the second.

`C#CC(C)(C)NCC(=O)O[C@@H]1CC[C@]2(CO2)[C@@H]([C@@]2(C)OC2CC=C(C)C)[C@@H]1OC` (stereo partly drawn) [Ex. 59, 6-O-(1,1-dimethyl-2-propinylamino)acetyl fumagillol] and `CO[C@@H]1[C@H](OC(=O)CNCC(C)=O)CC[C@]2(CO2)[C@H]1[C@@]1(C)OC1CC=C(C)C` (stereo partly drawn) [Ex. 71, 6-O-(2-oxo-propylamino)acetyl fumagillol] are within 1.5-fold of each other in IC50: 174 ng/mL (≈ 0.429 µM) for the first, 260 ng/mL (≈ 0.657 µM) for the second.

Compared with `COc1cc(C#N)c(NCC(=O)O[C@@H]2CC[C@]3(CO3)[C@@H]([C@@]3(C)OC3CC=C(C)C)[C@@H]2OC)cc1OC` (stereo partly drawn) [Ex. 6, 6-O-(3,4-dimethoxy-6-cyanoaniline)acetyl fumagillol], `COc1cc(NCC(=O)O[C@@H]2CC[C@]3(CO3)[C@@H]([C@@]3(C)OC3CC=C(C)C)[C@@H]2OC)c([N+](=O)[O-])cc1OC` (stereo partly drawn) [Ex. 5, 6-O-(3,4-dimethoxy-6-nitroaniline)acetyl fumagillol] is 7.5-fold higher in IC50: 19 ng/mL (≈ 0.038 µM) for the first, 142 ng/mL (≈ 0.273 µM) for the second.

Going from `COC(=O)C(NCC(=O)O[C@@H]1CC[C@]2(CO2)[C@@H]([C@@]2(C)OC2CC=C(C)C)[C@@H]1OC)C(C)(C)C` (stereo partly drawn) [Ex. 75, 6-O-(methyl-2-amino-3,3-dimethylbutanoate)acetyl fumagillol] to `CO[C@@H]1[C@H](OC(=O)CNC(C)CCC=C(C)C)CC[C@]2(CO2)[C@H]1[C@@]1(C)OC1CC=C(C)C` (stereo partly drawn) [Ex. 58, 6-O-(1,5-dimethyl-4-hexenylamino)acetyl fumagillol], the IC50 falls from 2400 ng/mL (≈ 5.13 µM) to 415 ng/mL (≈ 0.923 µM) (5.8-fold).

`CO[C@@H]1[C@H](OC(=O)CNC2CCCC2)CC[C@]2(CO2)[C@H]1[C@@]1(C)OC1CC=C(C)C` (stereo partly drawn) [Ex. 65, 6-O-(cyclopentylamino)acetyl fumagillol] and `CO[C@@H]1[C@H](OC(=O)CNCC(C)N(C)C)CC[C@]2(CO2)[C@H]1[C@@]1(C)OC1CC=C(C)C` (stereo partly drawn) [Ex. 69, 6-O-(2-dimethylamino-propylamino)acetyl fumagillol] are within 1.5-fold of each other in IC50: 250 ng/mL (≈ 0.613 µM) for the first, 260 ng/mL (≈ 0.612 µM) for the second.

`CCOc1cc(C)c(NCC(=O)O[C@@H]2CC[C@]3(CO3)[C@@H]([C@@]3(C)OC3CC=C(C)C)[C@@H]2OC)cc1C(C)C` (stereo partly drawn) [Ex. 16, 6-O-(3-isopropyl-4-ethoxy-6-methylaniline)acetyl fumagillol] and `COc1cc(NCC(=O)O[C@@H]2CC[C@]3(CO3)[C@@H]([C@@]3(C)OC3CC=C(C)C)[C@@H]2OC)cc(OC)c1OC` (stereo partly drawn) [Ex. 2, 6-O-(3,4,5-trimethoxyaniline)acetyl fumagillol] are within 1.5-fold of each other in IC50: 0.17 ng/mL (≈ 0.00033 µM) for the first, 0.15 ng/mL (≈ 0.000297 µM) for the second.

Same assay, conditions: Homo sapiens; HUVEC growth, cultured 2–3 days with compound, absorption at 490 nm; read-out: IC50

First: C=CCC(NCC(=O)O[C@@H]1CC[C@]2(CO2)[C@@H]([C@@]2(C)OC2CC=C(C)C)[C@@H]1OC)C(=O)OC (stereo partly drawn) [Ex. 76, 6-O-(allylglycinemethylester)acetyl fumagillol]
Second: CO[C@@H]1[C@H](OC(=O)CNc2ccccc2)CC[C@]2(CO2)[C@H]1[C@@]1(C)OC1CC=C(C)C (stereo partly drawn) [Ex. 18, 6-O-(aniline)acetyl fumagillol]
The IC50 of the first is 88-fold higher: 1490 ng/mL (≈ 3.3 µM) for the first, 17 ng/mL (≈ 0.0409 µM) for the second.
